# Data from ChEMBL document CHEMBL1155636, “Dihydrophenanthrenes from Spiranthes sinensis” (J Nat Prod, 2000).
# Activity calls are given as the source filed them. No cut-off for these calls is given here.
# Columns and labels:
# Type in all cases: cell-based
# MS-G2 [1] = test: Inhibition of Hepatitis B virus E antigen activity in human MS-G2 cells at 5 ug/mL
# MS-G2 [2] = test: Inhibition of Hepatitis B virus E antigen activity in human MS-G2 cells at 10 ug/mL
# [3] = Cytotoxicity against human MS-G2 cells at 20 ug/mL
SMILES,Activity (MS-G2 [1]),Activity (MS-G2 [2]),Activity [3]
COc1cc(O)c2c(c1Cc1ccc(O)cc1)CCc1c-2cc(Cc2ccc(O)cc2)c(O)c1CC=C(C)C [SINENSOL F],inactive,inactive,Active
COc1cc(OC)c2c(c1Cc1ccc(O)cc1)CCc1cc(O)ccc1-2 [SINENSOL A],inactive,inactive,Active
COc1cc(O)c(Cc2ccc(O)cc2)c2c1-c1ccc(O)c(CC=C(C)C)c1CC2 [SINENSOL C],inactive,inactive,Active
COc1cc(O)c2c(c1Cc1ccc(O)cc1)CCc1c-2ccc2c1C=CC(C)(C)O2 [SINENSOL D],inactive,inactive,Active
COc1cc(OC)c2c(c1Cc1ccc(O)cc1)CCc1c-2ccc(O)c1CC=C(C)C [SINENSOL B],inactive,inactive,Active
COc1cc(O)c2c(c1Cc1ccc(O)cc1)CCc1c-2ccc2c1CC(C(C)(C)O)O2 (stereo not drawn) [SINENSOL E],inactive,inactive,Active
